Results: PubChem BioAssay (NCI)
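GI50: concentration for 50% inhibition of growth. TGI marks complete inhibition of growth.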

Legend:
Test in all cases: DTP human tumour cell line panel, 384-well format
[1] = tested on: ACHN renal
[2] = tested on: BT-549 breast
[3] = tested on: DU-145 prostate
[4] = tested on: EKVX NSCLC
[5] = tested on: IGROV1 ovarian
[6] = tested on: K-562 leukemia
[7] = tested on: MCF7 breast
[8] = tested on: SK-MEL-5 melanoma
[9] = tested on: SNB-75 CNS
[10] = tested on: TK-10 renal
[11] = tested on: UACC-257 melanoma
[12] = tested on: UACC-62 melanoma
[13] = tested on: UO-31 renal

For `Cc1cc2c(C(C)C)c(O)c(O)c(C=O)c2c(O)c1-c1c(C)cc2c(C(C)C)c(O)c(O)c(C=O)c2c1O` (tested in a mixture with another compound), the GI50 [1] was 2050 nM, the TGI [1] was 4660 nM and the GI50 [2] was 1530 nM. The TGI [2] was 2940 nM, the GI50 [3] was 1860 nM and the TGI [3] was 3470 nM. The GI50 [4] was 1850 nM, the TGI [4] was 3970 nM and the GI50 [5] was 1950 nM. The TGI [5] was 3850 nM, the GI50 [6] was 1400 nM and the TGI [6] was 2870 nM. For the same molecule, the GI50 [7] was 2090 nM, the TGI [7] was 4510 nM and the GI50 [8] was 1760 nM. The TGI [8] was 3180 nM, the GI50 [9] was 2260 nM and the TGI [9] was 4370 nM. For the same molecule, the GI50 [10] was 2480 nM, the TGI [10] was 6230 nM and the GI50 [11] was 1990 nM. The TGI [11] was 3800 nM, the GI50 [12] was 1810 nM and the TGI [12] was 3250 nM. For the same molecule, the GI50 [13] was 2730 nM and the TGI [13] was 7080 nM.
